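Exposure lasted 48 hours, with cells grown in 96-well plates and compounds tested at five concentrations. TGI marks complete inhibition of growth.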
Assays:
Assay in all cases: NCI anticancer screen, dose series, 48 h
[1] = tested on: 786-0 renal
[2] = tested on: A498 renal
[3] = tested on: A549 NSCLC
[4] = tested on: ACHN renal
[5] = tested on: BT-549 breast
[6] = tested on: CAKI-1 renal
[7] = tested on: CCRF-CEM leukemia
[8] = tested on: COLO 205 colon
[9] = tested on: DLD-1 colon
[10] = tested on: DMS 114 small cell lung
[11] = tested on: DMS 273 small cell lung
[12] = tested on: DU-145 prostate
[13] = tested on: EKVX NSCLC
[14] = tested on: HCC-2998 colon
[15] = tested on: HCT-116 colon
[16] = tested on: HCT-15 colon
[17] = tested on: HL-60(TB) leukemia
[18] = tested on: HOP-62 NSCLC
[19] = tested on: HOP-92 NSCLC
[20] = tested on: HS 578T breast
[21] = tested on: HT29 colon
[22] = tested on: IGROV1 ovarian
[23] = tested on: K-562 leukemia
[24] = tested on: KM12 colon
[25] = tested on: KM20L2 colon
[26] = tested on: LOX IMVI melanoma
[27] = tested on: LXFL 529 NSCLC
[28] = tested on: M14 melanoma
[29] = tested on: M19-MEL melanoma
[30] = tested on: MALME-3M melanoma
[31] = tested on: MCF7 breast
[32] = tested on: MDA-MB-231 breast
[33] = tested on: MDA-MB-435
[34] = tested on: MDA-N
[35] = tested on: MOLT-4 leukemia
[36] = tested on: NCI-H226 lung
[37] = tested on: NCI-H23 lung
[38] = tested on: NCI-H460 lung
[39] = tested on: NCI-H522 lung
[40] = tested on: NCI/ADR-RES ovarian
[41] = tested on: OVCAR-3 ovarian
[42] = tested on: OVCAR-4 ovarian
[43] = tested on: OVCAR-5 ovarian
[44] = tested on: OVCAR-8 ovarian
[45] = tested on: PC-3 prostate
[46] = tested on: RPMI-8226 leukemia
[47] = tested on: RXF 393 renal
[48] = tested on: RXF-631 renal
[49] = tested on: SF-268 CNS
[50] = tested on: SF-295 CNS
[51] = tested on: SF-539 CNS
[52] = tested on: SK-MEL-2 melanoma
[53] = tested on: SK-MEL-28 melanoma
[54] = tested on: SK-MEL-5 melanoma
[55] = tested on: SK-OV-3 ovarian
[56] = tested on: SN12C renal
[57] = tested on: SNB-19 CNS
[58] = tested on: SNB-75 CNS
[59] = tested on: SNB-78 CNS
[60] = tested on: SR leukemia
[61] = tested on: SW-620 colon
[62] = tested on: T-47D breast
[63] = tested on: TK-10 renal
[64] = tested on: U251 CNS
[65] = tested on: UACC-257 melanoma
[66] = tested on: UACC-62 melanoma
[67] = tested on: UO-31 renal
[68] = tested on: XF 498 CNS
[69] = tested on: HOP-18 NSCLC

Q: Which results are given for O=[As]O?
A: TGI [1]: > 100 µM; TGI [2]: > 100 µM; TGI [3]: > 100 µM; TGI [4]: > 100 µM; TGI [5]: > 100 µM; TGI [6]: > 100 µM; TGI [7]: > 66.8 µM; TGI [8]: > 100 µM; TGI [9]: > 100 µM; TGI [10]: 40.3 µM; TGI [11]: > 100 µM; TGI [12]: > 100 µM; TGI [13]: > 100 µM; TGI [14]: > 100 µM; TGI [15]: > 100 µM; TGI [16]: > 100 µM; TGI [17]: 18.5 µM; TGI [18]: > 100 µM; TGI [19]: > 91.5 µM; TGI [20]: > 100 µM; TGI [21]: > 100 µM; TGI [22]: > 60.4 µM; TGI [23]: > 89.5 µM; TGI [24]: > 100 µM; TGI [25]: > 100 µM; TGI [26]: 96.9 µM; TGI [27]: > 100 µM; TGI [28]: > 96.1 µM; TGI [29]: 63.6 µM; TGI [30]: > 59.9 µM; TGI [31]: > 100 µM; TGI [32]: > 100 µM; TGI [33]: > 100 µM; TGI [34]: > 100 µM; TGI [35]: > 100 µM; TGI [36]: > 100 µM; TGI [37]: > 100 µM; TGI [38]: > 100 µM; TGI [39]: > 60.5 µM; TGI [40]: > 100 µM; TGI [41]: > 74.1 µM; TGI [42]: > 100 µM; TGI [43]: > 100 µM; TGI [44]: > 70.1 µM; TGI [45]: > 100 µM; TGI [46]: > 100 µM; TGI [47]: > 93.5 µM; TGI [48]: 22.5 µM; TGI [49]: > 74.4 µM; TGI [50]: > 100 µM; TGI [51]: > 54.3 µM; TGI [52]: > 100 µM; TGI [53]: > 100 µM; TGI [54]: > 61.8 µM; TGI [55]: > 100 µM; TGI [56]: > 95.1 µM; TGI [57]: > 100 µM; TGI [58]: 97.2 µM; TGI [59]: > 100 µM; TGI [60]: > 71.5 µM; TGI [61]: > 100 µM; TGI [62]: > 100 µM; TGI [63]: > 100 µM; TGI [64]: > 52.8 µM; TGI [65]: > 93.3 µM; TGI [66]: > 59.3 µM; TGI [67]: > 100 µM; TGI [68]: 36.8 µM

Q: Which TGI [2] does the source give for O=C(Nc1ccc2[nH]c3c(-c4ccccc4)nccc3c2c1)c1ccccc1[N+](=O)[O-] here?
A: 9.47 µM

Q: What about the TGI [3] of the same compound?
A: > 100 µM

Q: What about the TGI [4] of the same compound?
A: > 100 µM

Q: What about the TGI [6] of the same compound?
A: > 100 µM

Q: And the TGI [7]?
A: > 100 µM

Q: And the TGI [8]?
A: 23.5 µM

Q: What about the TGI [10] of the same compound?
A: > 100 µM

Q: And the TGI [11]?
A: 3.76 µM

Q: What about the TGI [13] of the same compound?
A: > 100 µM

Q: What about the TGI [14] of the same compound?
A: 11.4 µM

Q: And the TGI [15]?
A: > 100 µM

Q: What about the TGI [16] of the same compound?
A: 5.32 µM

Q: What about the TGI [17] of the same compound?
A: 10.6 µM

Q: And the TGI [69]?
A: > 100 µM

Q: What about the TGI [19] of the same compound?
A: 8.97 µM

Q: And the TGI [21]?
A: 4.3 µM

Q: And the TGI [22]?
A: > 100 µM

Q: And the TGI [23]?
A: > 100 µM

Q: What about the TGI [24] of the same compound?
A: > 100 µM

Q: And the TGI [27]?
A: 47.2 µM

Q: What about the TGI [28] of the same compound?
A: 5.88 µM

Q: What about the TGI [30] of the same compound?
A: 3.64 µM

Q: And the TGI [35]?
A: 15.3 µM

Q: What about the TGI [36] of the same compound?
A: 6.2 µM

Q: What about the TGI [37] of the same compound?
A: 33.5 µM

Q: What about the TGI [38] of the same compound?
A: > 100 µM

Q: What about the TGI [42] of the same compound?
A: > 100 µM

Q: What about the TGI [43] of the same compound?
A: 4.63 µM

Q: What about the TGI [44] of the same compound?
A: > 100 µM

Q: What about the TGI [46] of the same compound?
A: > 100 µM

Q: And the TGI [47]?
A: 3.69 µM

Q: What about the TGI [48] of the same compound?
A: > 100 µM

Q: And the TGI [49]?
A: > 100 µM

Q: What about the TGI [50] of the same compound?
A: 3.7 µM

Q: What about the TGI [51] of the same compound?
A: 3.46 µM

Q: What about the TGI [52] of the same compound?
A: 21.4 µM

Q: And the TGI [53]?
A: > 100 µM

Q: What about the TGI [56] of the same compound?
A: > 100 µM

Q: What about the TGI [57] of the same compound?
A: > 100 µM

Q: And the TGI [58]?
A: 9.14 µM

Q: And the TGI [59]?
A: > 100 µM

Q: What about the TGI [60] of the same compound?
A: 6.97 µM

Q: What about the TGI [61] of the same compound?
A: 37.3 µM

Q: And the TGI [63]?
A: 27.6 µM

Q: What about the TGI [64] of the same compound?
A: 16.7 µM

Q: And the TGI [65]?
A: 30.7 µM

Q: What about the TGI [68] of the same compound?
A: 18.9 µM

Reference: PubChem BioAssay (NCI)
